The text below walks through data of patent US12139520B2 (priority 2020, dated 2024).

One assay addresses hAM1 receptor (Homo sapiens, UniProt O60895+Q16602). Kind of assay: cAMP assay for in vitro receptor activation, hAM1-R. The format is cell-based. Particulars: cAMP assay, hAM1 receptor; read-out: hAM1R EC50. In a few lines: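 cAMP accumulation was measured in a monoclonal cell line stably overexpressing the hAM1 receptor. Frozen aliquots were thawed and plated at 8000 cells/well in DPBS containing 0.05% casein and 0.5 mM IBMX.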

Another assay concerns the target T1, hAMY3 receptor (Homo sapiens, UniProt O60896+P30988).
T1 sequence (P30988 25-474): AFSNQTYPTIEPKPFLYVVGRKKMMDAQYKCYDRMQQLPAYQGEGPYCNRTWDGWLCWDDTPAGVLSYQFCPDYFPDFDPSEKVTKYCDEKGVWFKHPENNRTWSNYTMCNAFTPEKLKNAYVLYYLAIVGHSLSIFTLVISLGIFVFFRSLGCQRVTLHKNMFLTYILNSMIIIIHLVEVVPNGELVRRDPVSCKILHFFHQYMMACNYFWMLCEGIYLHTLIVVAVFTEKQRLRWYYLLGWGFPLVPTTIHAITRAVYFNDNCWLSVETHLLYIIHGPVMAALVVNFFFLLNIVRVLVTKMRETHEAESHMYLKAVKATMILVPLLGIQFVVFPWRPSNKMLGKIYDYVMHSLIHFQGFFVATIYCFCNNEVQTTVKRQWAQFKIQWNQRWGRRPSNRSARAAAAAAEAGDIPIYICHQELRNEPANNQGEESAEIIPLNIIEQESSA
T1 sequence (O60896 24-148 partner): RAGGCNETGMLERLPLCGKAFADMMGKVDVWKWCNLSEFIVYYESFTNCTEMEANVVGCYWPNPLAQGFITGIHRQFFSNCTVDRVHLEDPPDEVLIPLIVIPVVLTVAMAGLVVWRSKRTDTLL
Kind of assay: cAMP assay for in vitro receptor activation, hAMY3-R. Type of assay: cell-based. Particulars: cAMP assay, hAMY3 receptor; read-out: hAMY3R EC50. The procedure, abridged:
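Monoclonal cell line stably overexpressing human AMY3 receptor, 2000 cells/well in DPBS with 0.05% casein and 0.5 mM IBMX. Stimulated 30 min at room temperature with graded compound doses, human amylin as positive control. cAMP accumulation read by TR-FRET after one hour.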

Numbered stars: 1 amine (or outer) side, 2 acyl side, 3 side chain; on linkers, the order of the positions; unused ones are H or OH. Bridge positions count the residues as written; N and C are the ends. Square brackets hold non-standard residues; d marks the D form. Peptide text beside a SMILES is read from it. * marks the point of attachment. C20 diacid = O=C(O)CCCCCCCCCCCCCCCCCCC(=O)*; γGlu = O=C(O)[C@H](CCC(=O)[*:2])N[*:1]; Hyp = O=C(O)[C@@H]1C[C@@H](O)CN1

Chain of hAM1 receptor (Q16602 23-461): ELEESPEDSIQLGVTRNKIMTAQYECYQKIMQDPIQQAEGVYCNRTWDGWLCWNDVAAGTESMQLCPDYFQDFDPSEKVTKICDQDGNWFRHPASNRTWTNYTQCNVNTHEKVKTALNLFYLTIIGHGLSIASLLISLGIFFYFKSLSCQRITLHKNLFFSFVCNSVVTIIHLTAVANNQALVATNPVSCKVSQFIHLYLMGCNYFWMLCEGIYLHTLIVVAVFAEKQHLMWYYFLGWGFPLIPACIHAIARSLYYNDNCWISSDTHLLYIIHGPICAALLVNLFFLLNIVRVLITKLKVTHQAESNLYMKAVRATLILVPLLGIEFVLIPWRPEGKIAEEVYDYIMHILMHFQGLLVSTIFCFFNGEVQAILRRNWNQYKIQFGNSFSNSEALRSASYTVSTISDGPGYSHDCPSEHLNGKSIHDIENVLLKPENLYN
Chain of hAM1 receptor (O60895 43-175 partner): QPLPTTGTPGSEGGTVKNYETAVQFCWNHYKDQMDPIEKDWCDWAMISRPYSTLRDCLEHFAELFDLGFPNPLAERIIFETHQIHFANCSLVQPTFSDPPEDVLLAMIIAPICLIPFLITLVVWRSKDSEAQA

For the compound `CC[C@H](C)[C@H](NC(=O)[C@H](C)NC(=O)CNC(=O)[C@H](Cc1ccccc1)NC(=O)[C@H](CC(N)=O)NC(=O)[C@H](CC(N)=O)NC(=O)[C@H](CO)NC(=O)[C@H](CO)NC(=O)[C@H](Cc1c[nH]cn1)NC(=O)[C@@H](NC(=O)[C@H](CC(C)C)NC(=O)[C@H](Cc1ccccc1)NC(=O)[C@H](CC(N)=O)NC(=O)[C@H](C)NC(=O)[C@H](CC(C)C)NC(=O)[C@H](CCCNC(=N)N)NC(=O)[C@H](CCC(N)=O)NC(=O)[C@@H](NC(=O)[C@H](C)NC(=O)[C@@H]1CSSC[C@H](NC(=O)[C@@H](N)CCCCN)C(=O)N[C@@H](CC(N)=O)C(=O)N[C@@H]([C@@H](C)O)C(=O)N[C@@H](C)C(=O)N[C@@H]([C@@H](C)O)C(=O)N1)[C@@H](C)O)C(C)C)C(=O)N[C@@H](CC(C)C)C(=O)N[C@@H](CO)C(=O)N[C@@H](CO)C(=O)N[C@H](C(=O)N[C@@H](CCCCN)C(=O)N[C@H](C(=O)NCC(=O)N[C@@H](CO)C(=O)N[C@@H](CC(N)=O)C(=O)N[C@H](C(=O)N[C@@H](Cc1ccc(O)cc1)C(N)=O)[C@@H](C)O)C(C)C)[C@@H](C)O` [compound 58], the values for the EC50 at hAM1 receptor and on hAMY3 receptor were above 5 µM and 0.012 nM, respectively.

As for `CC[C@H](C)[C@H](NC(=O)[C@H](C)NC(=O)CNC(=O)[C@H](Cc1ccccc1)NC(=O)[C@H](CC(N)=O)NC(=O)[C@H](CC(N)=O)NC(=O)[C@H](CO)NC(=O)[C@H](CO)NC(=O)[C@H](Cc1c[nH]cn1)NC(=O)[C@@H](NC(=O)[C@H](CC(C)C)NC(=O)[C@H](Cc1ccccc1)NC(=O)[C@H](CC(N)=O)NC(=O)[C@H](C)NC(=O)[C@H](CC(C)C)NC(=O)[C@H](CCCNC(=N)N)NC(=O)[C@H](CCC(N)=O)NC(=O)[C@@H](NC(=O)[C@H](C)NC(=O)[C@@H]1CSSC[C@H](NC(=O)[C@@H](N)CCCCN)C(=O)N[C@@H](CC(N)=O)C(=O)N[C@@H]([C@@H](C)O)C(=O)N[C@@H](C)C(=O)N[C@@H]([C@@H](C)O)C(=O)N1)[C@@H](C)O)C(C)C)C(=O)N[C@@H](CC(C)C)C(=O)N1CCC[C@H]1C(=O)N[C@@H](CO)C(=O)N[C@H](C(=O)N[C@@H](CCCCN)C(=O)N[C@H](C(=O)NCC(=O)N[C@@H](CO)C(=O)N[C@@H](CC(N)=O)C(=O)NCC(=O)N[C@@H](Cc1ccc(O)cc1)C(N)=O)C(C)C)[C@@H](C)O` [compound 59] (H-KCNTATCATQRLANFLVHSSNNFGAILPSTKVGSNGY-NH2; disulfide 2-7), the figures for the EC50 at hAM1 receptor and on hAMY3 receptor were above 5 µM and 0.012 nM, respectively.

`CC[C@H](C)[C@H](NC(=O)[C@H](CCC(N)=O)NC(=O)[C@H](Cc1c[nH]cn1)NC(=O)[C@H](C)NC(=O)[C@H](CC(C)C)NC(=O)[C@H](CCCNC(=N)N)NC(=O)[C@H](CCC(N)=O)NC(=O)[C@@H](NC(=O)[C@@H](NC(=O)[C@@H]1CSSC[C@H](NC(=O)[C@H](CCCCN)NC(=O)CC[C@H](NC(=O)CCCCCCCCCCCCCCCCCCC(=O)O)C(=O)O)C(=O)N[C@@H](CC(N)=O)C(=O)N[C@@H]([C@@H](C)O)C(=O)N[C@@H](C)C(=O)N[C@@H]([C@@H](C)O)C(=O)N1)[C@@H](C)O)C(C)C)C(=O)N[C@@H](C)C(=O)N[C@@H](CCC(N)=O)C(=O)N[C@@H](Cc1ccccc1)C(=O)N[C@H](C(=O)N[C@@H](CC(=O)O)C(=O)N[C@@H](CCCCN)C(=O)N[C@@H](CC(=O)O)C(=O)N[C@@H](CCCCN)C(=O)N[C@@H](CC(=O)O)C(=O)N[C@@H](CC(N)=O)C(=O)N[C@H](C(=O)N[C@@H](C)C(=O)N1CCC[C@H]1C(=O)N1CCC[C@H]1C(=O)N[C@H](C(=O)N[C@@H](CC(N)=O)C(=O)N[C@H](C(=O)NCC(=O)N[C@@H](CO)C(=O)N[C@@H](CC(N)=O)C(=O)NCC(=O)N1C[C@H](O)C[C@H]1C(N)=O)C(C)C)[C@@H](C)O)C(C)C)[C@@H](C)O` [compound 61] ({C20 diacid-γGlu}-KCNTATCTVQRLAHQIAQFTDKDKDNVAPPTNVGSNG[Hyp]-NH2; disulfide 2-7): the figures for the EC50 on hAM1 receptor and on hAMY3 receptor were above 5 µM and 0.012 nM, respectively.

As to `CC[C@H](C)[C@H](NC(=O)[C@H](CCC(N)=O)NC(=O)[C@H](Cc1c[nH]cn1)NC(=O)[C@H](C)NC(=O)[C@H](CC(C)C)NC(=O)[C@H](CCCNC(=N)N)NC(=O)[C@H](CCC(N)=O)NC(=O)[C@@H](NC(=O)[C@@H](NC(=O)[C@@H]1CSSC[C@H](NC(=O)[C@H](CCCCN)NC(=O)CC[C@H](NC(=O)CCCCCCCCCCCCCCCCCCC(=O)O)C(=O)O)C(=O)N[C@@H](CC(N)=O)C(=O)N[C@@H]([C@@H](C)O)C(=O)N[C@@H](CO)C(=O)N[C@@H]([C@@H](C)O)C(=O)N1)[C@@H](C)O)C(C)C)C(=O)N[C@@H](C)C(=O)N[C@@H](CCC(N)=O)C(=O)N[C@@H](Cc1ccccc1)C(=O)N[C@H](C(=O)N[C@@H](CC(=O)O)C(=O)N[C@@H](CCCCN)C(=O)N[C@@H](CC(=O)O)C(=O)N[C@@H](CCCCN)C(=O)N[C@@H](CC(=O)O)C(=O)N[C@@H](CC(N)=O)C(=O)N[C@H](C(=O)N[C@@H](C)C(=O)N1CCC[C@H]1C(=O)N1CCC[C@H]1C(=O)N[C@H](C(=O)N[C@@H](CC(N)=O)C(=O)N[C@H](C(=O)NCC(=O)N[C@@H](CO)C(=O)N[C@@H](CC(N)=O)C(=O)NCC(=O)N1C[C@H](O)C[C@H]1C(N)=O)C(C)C)[C@@H](C)O)C(C)C)[C@@H](C)O` [compound 62] ({C20 diacid-γGlu}-KCNTSTCTVQRLAHQIAQFTDKDKDNVAPPTNVGSNG[Hyp]-NH2; disulfide 2-7), the EC50 at hAM1 receptor was above 5 µM; at hAMY3 receptor, 0.012 nM.

For the compound `CC[C@H](C)[C@H](NC(=O)[C@H](CCC(N)=O)NC(=O)[C@H](CCC(=O)O)NC(=O)[C@H](C)NC(=O)[C@H](CC(C)C)NC(=O)[C@H](CCCNC(=N)N)NC(=O)[C@H](CCC(N)=O)NC(=O)[C@@H](NC(=O)[C@@H](NC(=O)[C@@H]1CSSC[C@H](NC(=O)[C@H](CCCCN)NC(=O)CC[C@H](NC(=O)CCCCCCCCCCCCCCCCCCC(=O)O)C(=O)O)C(=O)N[C@@H](CC(N)=O)C(=O)N[C@@H]([C@@H](C)O)C(=O)N[C@@H](C)C(=O)N[C@@H]([C@@H](C)O)C(=O)N1)[C@@H](C)O)C(C)C)C(=O)N[C@@H](Cc1ccc(O)cc1)C(=O)N[C@@H](CCC(N)=O)C(=O)N[C@@H](Cc1ccccc1)C(=O)N[C@H](C(=O)N[C@@H](CC(=O)O)C(=O)N[C@@H](CCCCN)C(=O)N[C@@H](CC(=O)O)C(=O)N[C@@H](CCCCN)C(=O)N[C@@H](CC(=O)O)C(=O)N[C@@H](CC(N)=O)C(=O)N[C@H](C(=O)N[C@@H](C)C(=O)N1CCC[C@H]1C(=O)N1CCC[C@H]1C(=O)N[C@H](C(=O)N[C@@H](C)C(=O)N[C@H](C(=O)NCC(=O)N[C@@H](CO)C(=O)N[C@@H](CC(N)=O)C(=O)NCC(=O)N1C[C@H](O)C[C@H]1C(N)=O)C(C)C)[C@@H](C)O)C(C)C)[C@@H](C)O` [compound 63] ({C20 diacid-γGlu}-KCNTATCTVQRLAEQIYQFTDKDKDNVAPPTAVGSNG[Hyp]-NH2; disulfide 2-7), the EC50 on hAM1 receptor was above 5 µM; on hAMY3 receptor, 0.012 nM.

For the compound `CC[C@H](C)[C@H](NC(=O)[C@H](CCC(N)=O)NC(=O)[C@H](CCC(=O)O)NC(=O)[C@H](C)NC(=O)[C@H](CC(C)C)NC(=O)[C@H](CCCNC(=N)N)NC(=O)[C@H](CCC(N)=O)NC(=O)[C@@H](NC(=O)[C@@H](NC(=O)[C@@H]1CSSC[C@H](NC(=O)[C@@H](N)CCCCN)C(=O)N[C@@H](CC(N)=O)C(=O)N[C@@H]([C@@H](C)O)C(=O)N[C@@H](C)C(=O)N[C@@H]([C@@H](C)O)C(=O)N1)[C@@H](C)O)C(C)C)C(=O)N[C@@H](Cc1ccc(O)cc1)C(=O)N[C@@H](CCC(N)=O)C(=O)N[C@@H](Cc1ccccc1)C(=O)N[C@H](C(=O)N[C@@H](CC(=O)O)C(=O)N[C@@H](CCCCN)C(=O)N[C@@H](CC(=O)O)C(=O)N[C@@H](CCCCN)C(=O)N[C@@H](CC(=O)O)C(=O)N[C@@H](CC(N)=O)C(=O)N[C@H](C(=O)N[C@@H](CO)C(=O)N1CCC[C@H]1C(=O)N1CCC[C@H]1C(=O)N[C@H](C(=O)N[C@@H](CC(N)=O)C(=O)N[C@H](C(=O)NCC(=O)N[C@@H](CO)C(=O)N[C@@H](CC(N)=O)C(=O)NCC(=O)N1C[C@H](O)C[C@H]1C(N)=O)C(C)C)[C@@H](C)O)C(C)C)[C@@H](C)O` [compound 66] (H-KCNTATCTVQRLAEQIYQFTDKDKDNVSPPTNVGSNG[Hyp]-NH2; disulfide 2-7), the concentration giving a half-maximal response (EC50) was above 5 µM on hAM1 receptor and 0.012 nM at hAMY3 receptor.
